According to the NIST ThermoML archive (doi:10.1021/je030231w):
Several values for one entry are separate records, joined by “and”; a condition that tells them apart may be missing. Equal values may be shown once. ± gives the expanded uncertainty stated by the source.

Experiments:
[1] = Crystal, Calculated from knudsen effusion weight loss
[2] = mn = molality of the nth substance listed, in mol/kg; conditions: 298 K, 101.3 kPa, Liquid

vapor or sublimation pressure ([1]; 374.94 K) [kPa]	vapor or sublimation pressure ([1]; 378.75 K) [kPa]	vapor or sublimation pressure ([1]; 380.67 K) [kPa]	vapor or sublimation pressure ([1]; 382.54 K) [kPa]	vapor or sublimation pressure ([1]; 384.45 K) [kPa]	vapor or sublimation pressure ([1]; 386.35 K) [kPa]	vapor or sublimation pressure ([1]; 388.25 K) [kPa]	vapor or sublimation pressure ([1]; 390.15 K) [kPa]	mass density ([2]; m1 = 0.01034) [kg/m3]	mass density ([2]; m1 = 0.01092) [kg/m3]	mass density ([2]; m1 = 0.01101) [kg/m3]	mass density ([2]; m1 = 0.01122) [kg/m3]	mass density ([2]; m1 = 0.01187) [kg/m3]	mass density ([2]; m1 = 0.01292) [kg/m3]	Structure (SMILES)	vapor or sublimation pressure ([1]; 373.02 K)	vapor or sublimation pressure ([1]; 392.01 K)
1.376e-05 ± 7e-07	2.012e-05 ± 1e-06	2.417e-05 ± 1.2e-06	2.882e-05 ± 1.5e-06	3.348e-05 ± 1.7e-06	3.983e-05 ± 2e-06	4.61e-05 ± 2.3e-06	5.586e-05 ± 2.8e-06							O=c1[nH]cc(C(F)(F)F)c(=O)[nH]1 [5-(trifluoromethyl)uracil]	1.187e-05 ± 6e-07 kPa and 1.168e-05 ± 5.9e-07 kPa	6.401e-05 ± 3.2e-06 kPa and 6.45e-05 ± 3.2e-06 kPa
								997.88 ± 0.2	997.938 ± 0.2	997.946 ± 0.19	997.96 ± 0.19	998.017 ± 0.19	998.089 ± 0.18	O=c1[nH]cc(C(F)(F)F)c(=O)[nH]1 [5-(trifluoromethyl)uracil] + O		
